From US9018451B2, “Optimized expression of glyphosate resistance encoding nucleic acid molecules in plant cells” (M S Technologies, LLC, priority 2010, dated 2015)

Key:
Assay in all cases: Field trial, in planta tolerance to glyphosate, injury assessed seven days after application
Type in all cases: in vivo, Glycine max
[1] = system: Soybean event 8291-4524 expressing 2mEPSPS (construct pDAB8291); conditions: 7 days after application
Method: (§1) Soybean events containing the 2mEPSPv2 expression cassette construct from pDAB8291 are tolerant to glyphosate. Field trials were performed during the 2009 and 2010 growing seasons. The plots were planted with the transgenic soybean seed which had been produced from the transformation with pDAB8291 and non-transgenic soybean (cv Maverick) which was used as a control. Field grown soybean plants from the T2 and T4 generation were sprayed with high rates of glyphosate. Glyphosate (DURANGO® herbicide Dow AgroSciences, Indianapolis, Ind.) applications were made at the V3 or V5 stage of plant development at a rate of 2,240 g ae/ha. Seven days after glyphosate application, the plants were assessed for injury.

[2] = system: Soybean event 8291-4536 expressing 2mEPSPS (construct pDAB8291); conditions: 7 days after application
Method: as §1

[3] = system: non-transgenic soybean (cv Maverick); conditions: Maverick non-transgenic control, 7 days after application
Method: as §1

[4] = system: soybean plants transformed with pDAB8291; conditions: T2 and T4 field grown plants, 2,240 g ae/ha at V3 or V5, seven days after application
Method: as §1

O=C(O)CNCP(=O)(O)O [Glyphosate, N-phosphonomethylglycine]
Adjusted Mean Injury 7daa(%) ([1]; event 8291-4524, T2 generation, application at V3, 2,240 g ae/ha glyphosate): 10% | Adjusted Mean Injury 7daa(%) ([1]; event 8291-4524, T4 generation, application at V5, 2,240 g ae/ha glyphosate): 0.5% | Adjusted Mean Injury 7daa(%) ([2]; event 8291-4536, T2 generation, application at V3, 2,240 g ae/ha glyphosate): 3.5% | Adjusted Mean Injury 7daa(%) ([2]; event 8291-4536, T4 generation, application at V5, 2,240 g ae/ha glyphosate): 0.75% | Adjusted Mean Injury 7daa(%) ([3]; T2 trial, application at V3, 2,240 g ae/ha glyphosate): 100% | Adjusted Mean Injury 7daa(%) ([3]; T4 trial, application at V5, 2,240 g ae/ha glyphosate): 100% | injury (damage) to plants as compared to Maverick controls [4]: Minimal damage
